Source: PubChem BioAssay (NCI)
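Step 1: Grow cells in 96-well plates. Step 2: Expose to compound for 48 hours at 5 concentrations. Step 3: Interpolate endpoints linearly; if unreached, use highest concentration. The concentration for 50% growth inhibition is given as GI50. TGI denotes the concentration required for complete inhibition of growth.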

What was measured:
Test in all cases: NCI tumour cell line growth inhibition, 48 h
M14 melanoma = test system: M14 melanoma
SF-295 CNS = test system: SF-295 CNS
NCI-H522 lung = test system: NCI-H522 lung
SN12C renal = test system: SN12C renal
HOP-92 NSCLC = test system: HOP-92 NSCLC
A498 renal = test system: A498 renal
ACHN renal = test system: ACHN renal
HCT-15 colon = test system: HCT-15 colon
SK-MEL-2 melanoma = test system: SK-MEL-2 melanoma
HS 578T breast = test system: HS 578T breast

Row | SMILES | TGI (M14 melanoma) | TGI (SF-295 CNS) | TGI (NCI-H522 lung) | TGI (SN12C renal) | TGI (HOP-92 NSCLC) | TGI (A498 renal) | TGI (ACHN renal) | TGI (HCT-15 colon) | TGI (SK-MEL-2 melanoma) | TGI (HS 578T breast) | GI50 (M14 melanoma) | GI50 (SK-MEL-2 melanoma) | GI50 (SF-295 CNS) | GI50 (NCI-H522 lung) | GI50 (SN12C renal) | GI50 (HS 578T breast) | GI50 (A498 renal) | GI50 (ACHN renal) | GI50 (HCT-15 colon)
1 | O=[P+](O)c1cccnc1 | > 100 µM | > 100 µM | > 100 µM | > 100 µM | > 100 µM | > 100 µM | > 100 µM | > 100 µM |  |  |  |  |  |  |  |  |  |  | 
2 | CC(C)OC(=O)c1cccnc1/C=N/O | > 100 µM | > 100 µM | > 100 µM | > 100 µM |  | > 100 µM | > 100 µM | > 100 µM | > 100 µM |  |  |  |  |  |  |  |  |  | 
3 | COc1cc(=O)oc(/C=C/CO)c1C | > 100 µM | > 100 µM | > 100 µM | > 100 µM | > 100 µM | > 100 µM | > 100 µM |  |  |  |  |  |  |  |  |  |  |  | 
4 | COc1cc2oc(-c3ccc(O)cc3)cc(=O)c2c(OC)c1O | > 100 µM | > 100 µM | > 100 µM | > 100 µM | > 100 µM |  | > 100 µM | > 100 µM | > 100 µM | > 100 µM |  |  |  |  |  |  |  |  | 
5 | O=c1sc(-c2nc3ccccc3[nH]2)c(/N=C/c2ccccc2)n1-c1ccccc1 | > 100 µM | > 100 µM | > 100 µM | > 100 µM |  | > 100 µM | > 100 µM | > 100 µM | > 100 µM |  |  |  |  |  |  |  |  |  | 
6 | CN(CC1NCCCC1O)C12CC3CC(CC(C3)C1)C2 (stereo not drawn) | > 100 µM | > 100 µM | > 100 µM | > 100 µM | > 100 µM | > 100 µM | > 100 µM | > 100 µM |  |  |  |  |  |  |  |  |  |  | 
7 | Cc1cc2c(C)nn(Cc3ccccc3Cl)c2c(C#N)c1C |  | > 100 µM |  | > 100 µM | > 100 µM |  | > 100 µM | > 100 µM | > 100 µM |  |  |  |  |  |  |  |  |  | 
8 | CN(CCCCN)c1ccc2c(=O)[nH][nH]c(=O)c2c1 | > 100 µM | > 100 µM | > 100 µM | > 100 µM | > 100 µM | > 100 µM | > 100 µM | > 100 µM | > 100 µM |  |  |  |  |  |  |  |  |  | 
9 | Cc1nc(-n2nc(-c3ccccc3)cc2-c2ccccc2)sc1C(/C=C/c1ccc([N+](=O)[O-])cc1)=N/NC(N)=S | > 100 µM | > 100 µM |  | > 100 µM | > 100 µM | > 100 µM | > 100 µM | > 100 µM | > 100 µM |  |  |  |  |  |  |  |  |  | 
10 | N/C(=N/N=C/c1cccc(F)c1)NO | 56 µM | > 100 µM | 96.1 µM | > 100 µM | > 100 µM | > 100 µM | > 100 µM | > 100 µM | > 100 µM |  |  |  |  |  |  |  |  |  | 
11 | Oc1[nH]c2ccccc2c1/C=c1/ccc2c(c1)N=C(c1cc(F)cc(F)c1)N=2 | 13.6 µM | 10.9 µM | 18.6 µM | 30 µM |  | 17 µM | 21.3 µM | 14.1 µM | 20.8 µM | 31.9 µM | 2.7 µM | 5.71 µM | 2.84 µM | 3.64 µM | 11.4 µM | 5.08 µM | 1.53 µM | 7.39 µM | 3.52 µM
